Results published in PubChem BioAssay (NCI).
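Five compound concentrations were applied to cells in 96-well plates for 48 hours; endpoints were derived by simple linear interpolation of the resulting dose-response curve. GI50: concentration for 50% inhibition of growth. TGI denotes the concentration required for complete inhibition of growth.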

Legend:
Experiment in all cases: NCI-60 cell line screen, 48 h
[1] = system: SF-295 CNS
[2] = system: A498 renal
[3] = system: RPMI-8226 leukemia
[4] = system: CCRF-CEM leukemia
[5] = system: SK-MEL-28 melanoma
[6] = system: UO-31 renal
[7] = system: OVCAR-5 ovarian
[8] = system: U251 CNS
[9] = system: BT-549 breast
[10] = system: SW-620 colon
[11] = system: OVCAR-8 ovarian
[12] = system: KM12 colon
[13] = system: NCI/ADR-RES ovarian
[14] = system: SK-MEL-5 melanoma
[15] = system: SN12C renal
[16] = system: DU-145 prostate
[17] = system: NCI-H460 lung
[18] = system: NCI-H522 lung
[19] = system: HCT-15 colon
[20] = system: SNB-75 CNS
[21] = system: PC-3 prostate
[22] = system: MDA-MB-435
[23] = system: SF-268 CNS
[24] = system: COLO 205 colon
[25] = system: SF-539 CNS
[26] = system: NCI-H226 lung
[27] = system: LOX IMVI melanoma
[28] = system: EKVX NSCLC
[29] = system: OVCAR-3 ovarian
[30] = system: HOP-92 NSCLC
[31] = system: K-562 leukemia
[32] = system: SR leukemia
[33] = system: CAKI-1 renal
[34] = system: HS 578T breast
[35] = system: SK-OV-3 ovarian
[36] = system: T-47D breast
[37] = system: UACC-62 melanoma
[38] = system: 786-0 renal
[39] = system: SNB-19 CNS
[40] = system: SK-MEL-2 melanoma
[41] = system: RXF 393 renal
[42] = system: HOP-62 NSCLC
[43] = system: HL-60(TB) leukemia
[44] = system: MDA-MB-231 breast
[45] = system: TK-10 renal
[46] = system: HCT-116 colon
[47] = system: MOLT-4 leukemia
[48] = system: NCI-H23 lung
[49] = system: HT29 colon
[50] = system: ACHN renal
[51] = system: MCF7 breast
[52] = system: HCC-2998 colon
[53] = system: MALME-3M melanoma
[54] = system: A549 NSCLC
[55] = system: M14 melanoma
[56] = system: OVCAR-4 ovarian
[57] = system: UACC-257 melanoma
[58] = system: IGROV1 ovarian

CC(C)(C)[Si](C)(C)OC1[C@@H](O[Si](C)(C)C(C)(C)C)[C@@H](CNC(=O)NC(=O)CCl)O[C@H]1n1cnc2c(NC(=O)Nc3ccccc3)ncnc21 (stereo partly specified)
GI50 [1]: 235 nM | TGI [1]: 922 nM | GI50 [2]: 902 nM | TGI [2]: 2110 nM | GI50 [3]: 167 nM | TGI [3]: 682 nM | GI50 [4]: 44.1 nM | TGI [4]: 125 nM | GI50 [5]: 916 nM | TGI [5]: 1690 nM | GI50 [6]: 76.3 nM | TGI [6]: 200 nM | GI50 [7]: 911 nM | TGI [7]: 2080 nM | GI50 [8]: 510 nM | TGI [8]: 1210 nM | GI50 [9]: 962 nM | TGI [9]: 1790 nM | GI50 [10]: 441 nM | TGI [10]: 1360 nM | GI50 [11]: 307 nM | TGI [11]: 1420 nM | GI50 [12]: 1040 nM | TGI [12]: 3640 nM | GI50 [13]: 1240 nM | TGI [13]: 8030 nM | GI50 [14]: 833 nM | TGI [14]: 1550 nM | GI50 [15]: 786 nM | TGI [15]: 1690 nM | GI50 [16]: 1730 nM | TGI [16]: 5320 nM | GI50 [17]: 859 nM | TGI [17]: 1740 nM | GI50 [18]: 96 nM | TGI [18]: 196 nM | GI50 [19]: 1770 nM | TGI [19]: 6560 nM | GI50 [20]: 536 nM | TGI [20]: 1280 nM | GI50 [21]: 381 nM | TGI [21]: 1190 nM | GI50 [22]: 835 nM | TGI [22]: 1750 nM | GI50 [23]: 665 nM | TGI [23]: 1440 nM | GI50 [24]: 1410 nM | TGI [24]: 3500 nM | GI50 [25]: 837 nM | TGI [25]: 1580 nM | GI50 [26]: 651 nM | TGI [26]: 1300 nM | GI50 [27]: 82.9 nM | TGI [27]: 180 nM | GI50 [28]: 1010 nM | TGI [28]: 2980 nM | GI50 [29]: 446 nM | TGI [29]: 1490 nM | GI50 [30]: 211 nM | TGI [30]: 900 nM | GI50 [31]: 1090 nM | TGI [31]: 3380 nM | GI50 [32]: 117 nM | TGI [32]: 446 nM | GI50 [33]: 989 nM | TGI [33]: 2820 nM | GI50 [34]: 1300 nM | TGI [34]: 12500 nM | GI50 [35]: 799 nM | TGI [35]: 1500 nM | GI50 [36]: 1010 nM | TGI [36]: 2170 nM | GI50 [37]: 793 nM | TGI [37]: 1600 nM | GI50 [38]: 310 nM | TGI [38]: 633 nM | GI50 [39]: 1110 nM | TGI [39]: 3960 nM | GI50 [40]: 1130 nM | TGI [40]: 2010 nM | GI50 [41]: 614 nM | TGI [41]: 1270 nM | GI50 [42]: 348 nM | TGI [42]: 953 nM | GI50 [43]: 166 nM | TGI [43]: 488 nM | GI50 [44]: 507 nM | TGI [44]: 1300 nM | GI50 [45]: 978 nM | TGI [45]: 1880 nM | GI50 [46]: 719 nM | TGI [46]: 1510 nM | GI50 [47]: 339 nM | TGI [47]: 913 nM | GI50 [48]: 756 nM | TGI [48]: 1840 nM | GI50 [49]: 330 nM | TGI [49]: 1050 nM | GI50 [50]: 782 nM | TGI [50]: 1540 nM | GI50 [51]: 760 nM | TGI [51]: 1620 nM | GI50 [52]: 967 nM | TGI [52]: 2060 nM | GI50 [53]: 796 nM | TGI [53]: 1620 nM | GI50 [54]: 1190 nM | TGI [54]: 3510 nM | GI50 [55]: 978 nM | TGI [55]: 1980 nM | GI50 [56]: 700 nM | TGI [56]: 1570 nM | GI50 [57]: 884 nM | TGI [57]: 1890 nM | GI50 [58]: 111 nM | TGI [58]: 233 nM
